Molecular target: T1, RORgT (Homo sapiens, UniProt P51449)
T1 construct: Gal4 (fusion partner); expressed in transfected cells; host or cells: engineered Jurkat cells (Jurkat pEx/Gal/hRORγ CLBD/HYG pG5luc/blast)
T1 sequence (P51449 267-516): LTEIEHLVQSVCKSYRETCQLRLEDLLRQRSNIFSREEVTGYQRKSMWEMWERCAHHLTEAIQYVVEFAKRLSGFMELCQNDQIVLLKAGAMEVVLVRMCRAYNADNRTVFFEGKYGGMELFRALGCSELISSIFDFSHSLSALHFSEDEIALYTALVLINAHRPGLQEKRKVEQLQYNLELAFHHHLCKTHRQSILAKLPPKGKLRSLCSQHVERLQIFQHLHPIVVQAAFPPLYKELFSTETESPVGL
Experiment: RORgT Gal4 Luciferase Reporter Gene Assay
Format: cell-based
Conditions: engineered Jurkat cells overexpressing RORgT (LBD or full length) with Gal4 Luc reporter; 18 hours at 37° C.; 40 μM to 0.67 nM; read-out: RORg_GAL4 EC50
In short: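 Cells exposed to compound 18 hours at 37° C, then lysed for luciferase luminescence. Inhibition of constitutive activity expressed as percent reduction of signal window relative to a control compound.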

EC50 | SMILES
0.071 µM | CC(C)c1cc(F)cc(Oc2c(Cl)ccc(C(=O)NC(C)c3ccc(S(C)(=O)=O)cc3)c2Cl)c1 (stereo not shown) [Example 142]
0.383 µM | COc1ccc(Oc2c(Cl)ccc(CNC(=O)COC3CCN(S(C)(=O)=O)CC3)c2Cl)cc1C(C)C [Example 188]
0.0081 µM | CC(C)(F)c1cc(F)cc(Oc2c(Cl)cc(NC(=O)CC3CCN(S(C)(=O)=O)CC3)cc2Cl)c1 [Example 333]
0.187 µM | CC(C)c1cc(F)cc(Oc2c(Cl)ccc(C(=O)NCc3cccc(S(C)(=O)=O)c3)c2Cl)c1 [Example 139]
0.015 µM | COc1ccc(Oc2c(Cl)ccc(C(=O)N(C)CC3CCN(S(C)(=O)=O)CC3)c2Cl)cc1C(C)C [Example 104]
0.088 µM | COc1ccc(Oc2c(Cl)cc(NC(=O)CN3CCN(S(=O)(=O)C4CC4)CC3)cc2Cl)cc1C(C)C [Example 315]
0.0036 µM | CC(C)c1cc(F)cc(Oc2c(Cl)ccc(C(=O)NCc3ccc(S(C)(=O)=O)cc3)c2Cl)c1 [Example 122]
0.04 µM | COc1ccc(Oc2c(Cl)ccc(C(=O)N3CCC(O)CC3)c2Cl)cc1C(C)C [Example 189]
0.015 µM | CC(C)(F)c1cc(F)cc(Oc2c(Cl)ccc(C(=O)NCc3ccc(S(N)(=O)=O)cc3)c2Cl)c1 [Example 337]
0.032 µM | COc1ccc(Oc2c(Cl)ccc(NC(=O)CN3CCN(S(C)(=O)=O)CC3)c2Cl)cc1C(C)C [Example 106]
0.102 µM | CC(C)c1cc(Oc2c(Cl)cc(NC(=O)CC3CCN(S(C)(=O)=O)CC3)cc2Cl)ccc1OC(F)(F)F [Example 260]
0.039 µM | CC(C)c1cc(F)cc(Oc2c(Cl)ccc(C(=O)N3CCC(S(C)(=O)=O)CC3)c2Cl)c1 [Example 264]
0.0055 µM | CC(C)c1cc(F)cc(Oc2c(Cl)ccc(NC(=O)CC3CCN(S(C)(=O)=O)CC3)c2Cl)c1 [Example 130]
0.0066 µM | CC(C)(F)c1cc(F)cc(Oc2c(Cl)cc(NC(=O)CN3CCN(S(C)(=O)=O)CC3)cc2Cl)c1 [Example 334]
0.033 µM | COc1ncc(Oc2c(Cl)ccc(C(=O)NCC3CCN(S(C)(=O)=O)CC3)c2Cl)cc1C(C)C [Example 72]
0.891 µM | COc1ccc(Oc2c(Cl)cc(NC(=O)CN3CC4(C3)CN(S(=O)(=O)C3CC3)C4)cc2Cl)cc1C(C)C [Example 229]
0.046 µM | COc1ccc(Oc2c(Cl)ccc(C(=O)N3CCOCC3)c2Cl)cc1C(C)C [Example 211]
0.09 µM | CS(=O)(=O)N1CC2(CCN(C(=O)c3ccc(Cl)c(Oc4cc(F)cc(CCC(F)(F)F)c4)c3Cl)CC2)C1 [Example 327]
0.0099 µM | CC(C)c1cc(F)cc(Oc2c(Cl)ccc(CNC(=O)C3CCN(S(N)(=O)=O)CC3)c2Cl)c1 [Example 151]
0.105 µM | COc1ccc(Oc2c(Cl)cc(NC(=O)CN3CCN(S(N)(=O)=O)CC3)cc2Cl)cc1C(C)C [Example 48, N-(3,5-dichloro-4-(3-isopropyl-4-methoxyphenoxy)phenyl)-2-(4-sulfamoylpiperazin-1-yl)acetamide]

Further lines, the compound ahead of its results:

SMILES | EC50
COc1ccc(Oc2c(Cl)ccc(CNS(=O)(=O)C3CCN(S(N)(=O)=O)CC3)c2Cl)cc1C(C)C [Example 98] | 0.02 µM
COc1ccc(Oc2c(Cl)cc(C(=O)NCc3cnc(C)cn3)cc2Cl)cc1C(C)C [Example 155] | 4.75 µM
COc1ccc(Oc2c(Cl)cc3[nH]c(-c4ccccc4)nc3c2Cl)cc1C(C)C [Example 35, 4,6-dichloro-5-(3-isopropyl-4-methoxyphenoxy)-2-phenyl-1H-benzo[d]imidazole] | 2.05 µM
COc1ccc(Oc2c(Cl)cc(N3CC(CO)OC3=O)cc2Cl)cc1C(C)C (stereo not shown) [Example 10, 3-(3,5-dichloro-4-(3-isopropyl-4-methoxyphenoxy)phenyl)-5-(hydroxymethyl) oxazolidin-2-one] | 2.12 µM
COc1ccc(Oc2c(Cl)cc(NC(=O)Cc3cccc(S(N)(=O)=O)c3)cc2Cl)cc1C(C)C [Example 244] | 0.037 µM
COc1ncc(Oc2c(Cl)ccc(C(=O)NCc3cccc(S(C)(=O)=O)c3)c2Cl)cc1C(C)C [Example 138] | 0.225 µM
COc1ccc(Oc2c(Cl)cc(NC(=O)CCN3CCCC3=O)cc2Cl)cc1C(C)C [Example 291] | 0.134 µM
COc1ccc(Oc2c(Cl)cc(NC(=O)CC3CCCN(S(=O)(=O)C(C)C)C3)cc2Cl)cc1C(C)C (stereo not shown) [Example 316] | 0.943 µM
CCS(=O)(=O)N[C@H]1CCCN(CC(=O)Nc2cc(Cl)c(Oc3ccc(OC)c(C(C)C)c3)c(Cl)c2)C1 [Example 172] | 0.049 µM
COc1ccc(Oc2c(Cl)cc(N3CC(CNS(N)(=O)=O)OC3=O)cc2Cl)cc1C(C)C (stereo not shown) [Example 12, N-[(3-{3,5-dichloro-4-[4-methoxy-3-(propan-2-yl)phenoxy]phenyl}-2-oxo-1,3-oxazolidin-5-yl)methyl]aminosulfonamide] | 1.1 µM
COc1ccc(Oc2c(Cl)ccc(C(=O)NCc3ccc(S(=O)(=O)N(C)C)nc3)c2Cl)cc1C(C)C [Example 99] | 0.153 µM
COC(=O)CCC(=O)Nc1cc(Cl)c(Oc2ccc(OC)c(C(C)C)c2)c(Cl)c1 [Example 295] | 0.308 µM
COc1ccc(Oc2c(Cl)cc(NC(=O)CC3CCCNC3)cc2Cl)cc1C(C)C (racemic) [Example 32, N-(3,5-dichloro-4-(3-isopropyl-4-methoxyphenoxy)phenyl)-2-(piperidin-3-yl)acetamide] | 0.296 µM
COc1ccc(Oc2c(Cl)cc(NC(=O)CC3CCN(S(N)(=O)=O)CC3)cc2Cl)cc1C(C)C [Example 46, N-(3,5-dichloro-4-(3-isopropyl-4-methoxyphenoxy)phenyl)-2-(1-sulfamoylpiperidin-4-yl)acetamide] | 0.438 µM
CC(C)c1cc(F)cc(Oc2c(Cl)cc(NC(=O)Cc3ccc(S(C)(=O)=O)cc3)cc2Cl)c1 [Example 329] | 0.032 µM
COc1ccc(Oc2c(F)cc(NC(=O)Cc3cccnc3)cc2F)cc1C(C)C [Example 40, N-(3,5-difluoro-4-(3-isopropyl-4-methoxyphenoxy)phenyl)-2-(pyridin-3-yl)acetamide] | 2.45 µM
COc1ccc(Oc2c(Cl)cc(NC(=O)CC3CCCN(S(C)(=O)=O)C3)cc2Cl)cc1C(C)C (racemic) [Example 41, N-(3,5-dichloro-4-(3-isopropyl-4-methoxyphenoxy)phenyl)-2-(1-(methylsulfonyl)piperidin-3-yl)acetamide] | 0.356 µM
COc1ccc(Oc2c(Cl)cc(NC(=O)Cc3ccnc(S(C)(=O)=O)c3)cc2Cl)cc1C(C)C [Example 241] | 0.064 µM
COc1ncc(Oc2c(Cl)ccc(C(=O)NCc3ccc(S(N)(=O)=O)cc3)c2Cl)cc1C(C)C [Example 117] | 0.006 µM
COc1ccc(Oc2c(Cl)ccc(C(=O)N(C)C)c2Cl)cc1C(C)C [Example 78] | 1.05 µM
COc1ncc(Oc2c(Cl)ccc(NC(=O)Cc3cccc(S(C)(=O)=O)c3)c2Cl)cc1C(C)C [Example 141] | 0.182 µM

SMILES | EC50
COc1ncc(Oc2c(Cl)cc(NC(=O)CN3CC(NS(C)(=O)=O)C3)cc2Cl)cc1C(C)C [Example 267] | 0.373 µM
CCS(=O)(=O)N1CCC(CC(=O)Nc2cc(Cl)c(Oc3cnc(OC)c(C(C)C)c3)c(Cl)c2)CC1 [Example 120] | 0.037 µM
COc1ccc(Oc2c(Cl)cc(NC(=O)Cc3cccc(C#N)c3)cc2Cl)cc1C(C)C [Example 4, 2-(3-cyanophenyl)-N-(3,5-dichloro-4-(3-isopropyl-4-methoxyphenoxy)phenyl) acetamide] | 0.121 µM
COc1ccc(Oc2c(Cl)cc(N3CC(CNC(C)=O)OC3=O)cc2Cl)cc1C(C)C (stereo not shown) [Example 11, N-((3-(3,5-dichloro-4-(3-isopropyl-4-methoxyphenoxy)phenyl)-2-oxooxazolidin-5-yl)methyl)acetamide] | 0.077 µM
CNC(=O)c1ccc(CNC(=O)c2ccc(Cl)c(Oc3ccc(OC)c(C(C)C)c3)c2Cl)cc1 [Example 102] | 0.455 µM
CCc1cc(Oc2c(Cl)cc(NC(=O)Cc3cccnc3)cc2Cl)ccc1OC [Example 310] | 0.293 µM
CCCS(=O)(=O)Nc1cc(Cl)c(Oc2ccc(OC)c(C(C)C)c2)c(Cl)c1 [Example 303] | 0.858 µM
COc1ccc(Oc2c(Cl)cc(NS(=O)(=O)C3CC3)cc2Cl)cc1C(C)C [Example 304] | 1.08 µM
COc1ccc(Oc2c(Cl)cc(NC(=O)CCC(=O)O)cc2Cl)cc1C(C)C [Example 340] | 5.53 µM
COc1ccc(Oc2c(Cl)ccc(C(=O)NC(C)c3cn(C)nc3C)c2Cl)cc1C(C)C (stereo not shown) [Example 204] | 0.04 µM
COc1ccc(Oc2c(Cl)cc(NC(=O)CCCN3CCOCC3)cc2Cl)cc1C(C)C [Example 298] | 0.727 µM
COc1ccc(Oc2c(Cl)ccc(C(=O)N3CCN(c4ccc(Cl)cc4)CC3)c2Cl)cc1C(C)C [Example 230] | 0.373 µM
CCS(=O)(=O)N[C@@H]1CCN(CC(=O)Nc2cc(Cl)c(Oc3ccc(OC)c(C(C)C)c3)c(Cl)c2)C1 [Example 159] | 0.377 µM
COc1ccc(Oc2c(Cl)cc(NC(=O)Cc3cccnc3Cl)cc2Cl)cc1C(C)C [Example 345] | 0.124 µM
COc1ccc(Oc2c(Cl)ccc(C(=O)Nc3cccnc3)c2Cl)cc1C(C)C [Example 202] | 4.49 µM
COc1ccc(Oc2c(Cl)cc(NC(=O)Cc3cccnc3S(C)(=O)=O)cc2Cl)cc1C(C)C [Example 240] | 0.099 µM
COc1ccc(Oc2c(Cl)cc(NC(=O)Cc3cccnc3)cc2Cl)cc1C(C)(C)O [Example 335] | 0.722 µM
COc1ccc(Oc2c(Cl)ccc(CNC(=O)C3CCN(S(=O)(=O)C(C)C)CC3)c2Cl)cc1C(C)C [Example 95] | 0.024 µM
COc1ncc(Oc2c(Cl)ccc(C(=O)NC(C)c3ccc(S(C)(=O)=O)cc3)c2Cl)cc1C(C)C (stereo not shown) [Example 143] | 0.0115 µM
CC(C)c1cc(Oc2c(Cl)cc(NC(=O)Cc3cccnc3)cc2Cl)ccc1OC(F)(F)F [Example 259] | 0.356 µM

Source: patent US20220306630A1, “AGONISTS OF ROR GAMMAt” (BRISTOL-MYERS SQUIBB COMPANY, priority 2019, published 2022)
